In patent US20250351832A1, “PHYTOCHEMICALS AS BIOPESTICIDES AND BIOSTIMULANTS” (KAY BEE BIO ORGANICS PVT. LTD., priority 2024, published 2025):
Read-outs that look alike come from different tables or passages of the source.

What was measured:
Aphid [1] = conditions: Dose 1 ml/gm/lit.; for Total No. of dead insect at 48 Hrs.: 10 insects/treatment, 4 replications, cotton leaves
Mite [2] = conditions: mite on okra plants, green house, dose 1 ml/gm/lit. spray; for % Mortality at 48 Hrs. / Total No. of dead insect at 48 Hrs.: 48 hrs after application; for % Corrected Mortality at 48 Hrs.: corrected for water control
Aphid [3] = assay: whole plant or invertebrate; conditions: 48 h
Alternaria alternata [4] = assay: Alternaria leaf spot/blight on inoculated tomato plants (Ex. 28); format: in vivo; conditions: tomato plants, Alternaria alternata; after 7 days; dose 1 ml/gm/lit
tomato seedlings = assay: Response of tomato plants, greenhouse growth (Ex. 30); format: in vivo; conditions: tomato seedlings, dose 1 ml/gm/lit; for Plant Height 5th Day / Stem Girth 5th Day / CCI 5th Day: 5th day after application; for Plant Height 10th Day / Stem Girth 10th Day / CCI 10th Day: 10th day after application; for Plant Height % Increase over pre on 10th Day / Stem Girth % Increase over pre on 10th Day / CCI % Increase over pre on 10th Day / Root Length (cm) 10th Day / Root Length % Increase over control: 10th day; for Root Length % Increase over control: vs water control
Mite [5] = conditions: Dose 1 ml/gm/lit.; for Total No. of dead insect at 48 Hrs.: 10 insects/treatment, 4 replications, okra leaves
Spodoptera litura [6] = conditions: Spodoptera litura 3rd instar on cabbage plants, dose 1 ml/gm/lit. spray; for % Mortality at 72 Hrs.: 72 hrs after application; for % Corrected Mortality at 72 Hrs.: corrected for water control
Mealy Bug [7] = conditions: Mealy Bug on cotton leaves, dose 1 ml/gm/lit., 48 Hrs.; for Total No. of dead insect at 48 Hrs.: 10 insects/treatment, 4 replications; for % Corrected Mortality at 48 Hrs.: corrected for water control
Mealy Bug [8] = conditions: mealy bug on cotton plants, green house, dose 1 ml/gm/lit. spray; for % Mortality at 48 Hrs. / Total No. of dead insect at 48 Hrs.: 48 hrs after application; for % Corrected Mortality at 48 Hrs.: corrected for water control
Thrips [9] = conditions: Thrips on cotton leaves; dose 1 ml/gm/lit.; 10 insects/treatment; 48 hrs after application
Alternaria alternata [10] = assay: In vitro poisoned food technique against fungus (Ex. 20); format: cell-based
Thrips [11] = conditions: thrips on cotton plants, greenhouse, dose 1 ml/gm/lit. spray; for % Mortality at 48 Hrs. / Total No. of dead insect at 48 Hrs.: 48 hrs after application; for % Corrected Mortality at 48 Hrs.: corrected for water control
[12] = cited from earlier work; for Phytotonic Effect: Table 13, effect on plants, descriptive
Helicoverpa armigera [13] = conditions: Helicoverpa armigera on okra fruits, dose 1 ml/gm/lit., 72 Hrs.; for Total No. of dead insect at 72 Hrs.: 10 insects/treatment, 4 replications; for % Corrected Mortality at 72 Hrs.: corrected for water control
Spodoptera litura [14] = assay: whole plant or invertebrate; conditions: 72 h
Spodoptera litura [15] = conditions: Spodoptera litura on castor leaves; dose 1 ml/gm/lit.; 10 insects/treatment; 72 hrs after application
Helicoverpa armigera [16] = conditions: Helicoverpa armigera 3rd instar on chickpea plants, dose 1 ml/gm/lit. spray; for % Mortality at 72 Hrs.: 72 hrs after application; for % Corrected Mortality at 72 Hrs.: corrected for water control
chili seedlings = assay: Response of chili plants, greenhouse growth (Ex. 31); format: in vivo; conditions: chili seedlings, dose 1 ml/gm/lit; for CCI 5th Day / Plant Height (cm) 5th Day: 5th day after application; for CCI 10th Day / Plant Height (cm) 10th Day: 10th day after application; for CCI % Increase over pre on 10th Day / Plant Height % Increase over pre on 10th Day / Root Lenght (cm) 10th Day / Stem Girth % Increase over pre on 10th Day / Root Lenght % Increase over control: 10th day; for Root Lenght % Increase over control: vs water control
Aphid [17] = conditions: Aphids on cotton plants, green house; dose 1 ml/gm/lit.; 10 insects/plant, 10 plants/treatment; 48 hrs
Thrips [18] = assay: whole plant or invertebrate; conditions: in Gossypium hirsutum, 48 h
[19] = read-out: % Corrected Mortality at 48 Hrs.
[20] = read-out: % Mortality at 48 Hrs.
[21] = poisoned food technique, PDA medium, dose 1 ml/gm/lit., after seven days
[22] = Table 13, descriptive, no test described
[23] = read-out: % Corrected Mortality at 72 Hrs.
[24] = read-out: % Mortality at 72 Hrs.

CCCCCCCCCCCCCCCC(=O)O [Palmitic acid]
Total No. of dead insect at 48 Hrs. (Aphid [1]): 6.00 | % Corrected Mortality at 48 Hrs. (Aphid [1]; 48 hrs): 54.29% | % Mortality at 48 Hrs. (Aphid [1]; 48 hrs): 60.00% | % Mortality at 48 Hrs. (Mite [2]): 45.00% | Total No. of dead insect at 48 Hrs. (Mite [2]): 45.00 | % Corrected Mortality at 48 Hrs. (Mite [2]): 42.11% | mortality at 1 mL or g/L (Aphid [3]; [19]): 64.7% | mortality at 1 mL or g/L (Aphid [3]; [20]): 70% | % Disease reduction over Control (Alternaria alternata [4]): 50.41% | Plant Height 5th Day (tomato seedlings): 7.14 cm | Stem Girth 5th Day (tomato seedlings): 1.79 mm | Plant Height 10th Day (tomato seedlings): 8.54 cm | Stem Girth 10th Day (tomato seedlings): 2.32 mm | Plant Height % Increase over pre on 10th Day (tomato seedlings): 41.16% | Stem Girth % Increase over pre on 10th Day (tomato seedlings): 76.92% | CCI 5th Day (tomato seedlings): 13.26 | CCI % Increase over pre on 10th Day (tomato seedlings): 33.42% | Root Length (cm) 10th Day (tomato seedlings): 4.95 cm | CCI 10th Day (tomato seedlings): 14.89 | Root Length % Increase over control (tomato seedlings): 48.91% | Total No. of dead insect at 48 Hrs. (Mite [5]): 4.25 | % Corrected Mortality at 48 Hrs. (Mite [5]): 37.84% | % Mortality at 48 Hrs. (Mite [5]): 42.50% | % Mortality at 72 Hrs. (Spodoptera litura [6]): 27.50% | % Corrected Mortality at 72 Hrs. (Spodoptera litura [6]): 23.68% | Total No. of dead insect at 48 Hrs. (Mealy Bug [7]): 6.50 | % Mortality at 48 Hrs. (Mealy Bug [7]): 65.00% | % Corrected Mortality at 48 Hrs. (Mealy Bug [7]): 63.16% | % Mortality at 48 Hrs. (Mealy Bug [8]): 55.00% | Total No. of dead insect at 48 Hrs. (Mealy Bug [8]): 55.00 | % Corrected Mortality at 48 Hrs. (Mealy Bug [8]): 50.00% | Total No. of dead insect at 48 Hrs. (Thrips [9]): 4.25 | inhibition of growth at 1 mL or g/L (Alternaria alternata [10]; […]): 34.1% | Mean colony Diameter (mm) (Alternaria alternata [10]; [21]): 58.00 mm | % Mortality at 48 Hrs. (Thrips [11]): 40.00% | Total No. of dead insect at 48 Hrs. (Thrips [11]): 40.00 | % Corrected Mortality at 48 Hrs. (Thrips [11]): 33.33% | Acaricidal Activity - Mode of action [12, 22]: Exhibited potent acaricidal | Antifungal Activity - Mode of action [12, 22]: Strongest antifungal | Bactericidal Activity - Mode of action [12, 22]: Destroyed or disintegrated | Nematicidal Activity - Mode of action [12, 22]: Repelling nematodes | Phytotonic Effect [12]: Optimize soil | Total No. of dead insect at 72 Hrs. (Helicoverpa armigera [13]): 4.50 | % Mortality at 72 Hrs. (Helicoverpa armigera [13]): 45.00% | % Corrected Mortality at 72 Hrs. (Helicoverpa armigera [13]): 45.00% | mortality at 1 mL or g/L (Spodoptera litura [14]; [23]): 21.1% | mortality at 1 mL or g/L (Spodoptera litura [14]; [24]): 25% | Total No. of dead insect at 72 Hrs. (Spodoptera litura [15]): 2.50 | % Mortality at 72 Hrs. (Helicoverpa armigera [16]): 40.00% | % Corrected Mortality at 72 Hrs. (Helicoverpa armigera [16]): 40.00% | CCI 5th Day (chili seedlings): 13.04 | Plant Height (cm) 5th Day (chili seedlings): 6.30 cm | CCI % Increase over pre on 10th Day (chili seedlings): 56.37% | Plant Height % Increase over pre on 10th Day (chili seedlings): 68.98% | Root Lenght (cm) 10th Day (chili seedlings): 4.41 cm | Stem Girth % Increase over pre on 10th Day (chili seedlings): 58.78% | CCI 10th Day (chili seedlings): 15.95 | Plant Height (cm) 10th Day (chili seedlings): 7.3 cm | Root Lenght % Increase over control (chili seedlings): 61.00% | Total No. of dead insect at 48 Hrs. (Aphid [17]): 70.00 | mortality at 1 mL or g/L (Thrips [18]; [19]): 34.3% | mortality at 1 mL or g/L (Thrips [18]; [20]): 42.5%

O=C(/C=C/C=C/c1ccc2c(c1)OCO2)N1CCCCC1 [Piperine]
Total No. of dead insect at 48 Hrs. (Aphid [1]): 7.00 | % Corrected Mortality at 48 Hrs. (Aphid [1]; 48 hrs): 65.71% | % Mortality at 48 Hrs. (Mite [2]): 60.00% | Total No. of dead insect at 48 Hrs. (Mite [2]): 60.00 | % Corrected Mortality at 48 Hrs. (Mite [2]): 57.89% | mortality at 1 mL or g/L (Aphid [3]; [19]): 64.7% | mortality at 1 mL or g/L (Aphid [3]; [20]): 70% | % Disease reduction over Control (Alternaria alternata [4]): 53.72% | Plant Height 5th Day (tomato seedlings): 6.41 cm | Stem Girth 5th Day (tomato seedlings): 1.80 mm | Plant Height 10th Day (tomato seedlings): 7.02 cm | Stem Girth 10th Day (tomato seedlings): 2.24 mm | Plant Height % Increase over pre on 10th Day (tomato seedlings): 30.48% | Stem Girth % Increase over pre on 10th Day (tomato seedlings): 57.52% | CCI 5th Day (tomato seedlings): 13.89 | CCI % Increase over pre on 10th Day (tomato seedlings): 20.71% | Root Length (cm) 10th Day (tomato seedlings): 3.93 cm | CCI 10th Day (tomato seedlings): 14.63 | Root Length % Increase over control (tomato seedlings): 18.18% | Total No. of dead insect at 48 Hrs. (Mite [5]): 6.25 | % Corrected Mortality at 48 Hrs. (Mite [5]): 59.46% | % Mortality at 48 Hrs. (Mite [5]): 62.50% | % Mortality at 72 Hrs. (Spodoptera litura [6]): 70.00% | % Corrected Mortality at 72 Hrs. (Spodoptera litura [6]): 68.42% | Total No. of dead insect at 48 Hrs. (Mealy Bug [7]): 5.25 | % Mortality at 48 Hrs. (Mealy Bug [7]): 52.50% | % Corrected Mortality at 48 Hrs. (Mealy Bug [7]): 50.00% | % Mortality at 48 Hrs. (Mealy Bug [8]): 57.50% | Total No. of dead insect at 48 Hrs. (Mealy Bug [8]): 57.50 | % Corrected Mortality at 48 Hrs. (Mealy Bug [8]): 52.78% | Total No. of dead insect at 48 Hrs. (Thrips [9]): 4.00 | Mean colony Diameter (mm) (Alternaria alternata [10]; [21]): 52.00 mm | inhibition of growth at 1 mL or g/L (Alternaria alternata [10]; poisoned food technique, PDA medium, dose 1 ml/gm/lit., after seven days, vs untreated control, read-out: % Inhibition of growth): 40.9% | % Mortality at 48 Hrs. (Thrips [11]): 32.50% | Total No. of dead insect at 48 Hrs. (Thrips [11]): 32.50 | % Corrected Mortality at 48 Hrs. (Thrips [11]): 25.00% | Acaricidal Activity - Mode of action [12, 22]: Cause dehydration of mites | Antifungal Activity - Mode of action [12, 22]: Inhibition of the fungal | Phytotonic Effect [12]: Boost plant | Total No. of dead insect at 72 Hrs. (Helicoverpa armigera [13]): 7.00 | % Mortality at 72 Hrs. (Helicoverpa armigera [13]): 70.00% | % Corrected Mortality at 72 Hrs. (Helicoverpa armigera [13]): 70.00% | mortality at 1 mL or g/L (Spodoptera litura [14]; [23]): 71% | mortality at 1 mL or g/L (Spodoptera litura [14]; [24]): 72.5% | Total No. of dead insect at 72 Hrs. (Spodoptera litura [15]): 7.25 | % Mortality at 72 Hrs. (Helicoverpa armigera [16]): 67.50% | % Corrected Mortality at 72 Hrs. (Helicoverpa armigera [16]): 67.50% | CCI 5th Day (chili seedlings): 13.30 | Plant Height (cm) 5th Day (chili seedlings): 6.30 cm | CCI % Increase over pre on 10th Day (chili seedlings): 38.67% | Plant Height % Increase over pre on 10th Day (chili seedlings): 54.78% | Root Lenght (cm) 10th Day (chili seedlings): 3.25 cm | Stem Girth % Increase over pre on 10th Day (chili seedlings): 39.49% | CCI 10th Day (chili seedlings): 14.2 | Plant Height (cm) 10th Day (chili seedlings): 7.12 cm | Root Lenght % Increase over control (chili seedlings): 18.81% | Total No. of dead insect at 48 Hrs. (Aphid [17]): 70.00 | mortality at 1 mL or g/L (Thrips [18]; [19]): 31.4% | mortality at 1 mL or g/L (Thrips [18]; [20]): 40%
